In the experiment the target is T1, human oxytocin receptor (Homo sapiens, UniProt P30559).
T1 construct: host or cells: CHO cells (pcDNA3.1 vector)
T1 sequence (P30559 1-389): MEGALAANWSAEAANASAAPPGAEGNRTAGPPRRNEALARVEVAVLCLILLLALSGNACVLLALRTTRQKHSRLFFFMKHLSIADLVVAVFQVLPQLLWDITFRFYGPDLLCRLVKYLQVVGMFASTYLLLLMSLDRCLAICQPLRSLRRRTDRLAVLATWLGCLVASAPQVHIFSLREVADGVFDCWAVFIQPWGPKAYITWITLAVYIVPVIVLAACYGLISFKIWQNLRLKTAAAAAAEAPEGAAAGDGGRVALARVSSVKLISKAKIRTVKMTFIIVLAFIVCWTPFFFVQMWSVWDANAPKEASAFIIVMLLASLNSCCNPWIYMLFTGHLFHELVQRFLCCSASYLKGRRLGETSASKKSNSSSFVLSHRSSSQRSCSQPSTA
Description: Oxytocin binding in Chinese Hamster Ovary cell membranes expressing human oxytocin receptors. Particulars: 100 nM, CHO cell membranes, [3H]oxytocin, values without parentheses; for inhibition at 0.1 µM: read-out: OT % inhibition @ 100% nM. On the procedure:
Oxytocin Binding in Chinese Hamster Ovary Cell Membranes Expressing Human Oxytocin Receptors
The trypsin is removed by aspiration and the cells dislodged by tapping. Cell Culture medium (e.g. 30 mL for 1:30 split) is immediately added and mixed well to inactivate trypsin. 1 mL of detached cells is added to new culture flasks containing fresh Cell Culture medium (e.g. into 25 mL per T-150 flask), and mixed gently. The cells are incubated at 37° C. in 5% CO2. The medium is changed at 3 to 4 days interval (or as appropriate). […] All steps are done under sterile conditions. B. Membrane Preparation: The cells are washed twice gently with Hank's Balanced Salt solution (e.g., use 10 mL per T-150 flask). […] The contents are transferred to centrifuge tubes (50 mL size) kept in ice bath. All subsequent steps are done at 4° C. The tubes are centrifuged at 300×g for 15 min (1380 rpm on SORVAL, Model RT6000D, using rotor for 50 mL tubes). The supernatant is discarded and the cells suspended in homogenizing buffer (10 mM Tris-HCl containing 0.25 M sucrose and 1 mM EDTA, pH 7.4) ensuring that the volume of the buffer is about ten times the volume of the cell pellet. The cells are pooled into a centrifuge tube (50 mL) and homogenized with a Polytron at setting 6 for 10 sec. The homogenate is transferred into a Potter-Elvjehm homogenizer and homogenized with 3 strokes. The homogenate is centrifuged at 1500×g for 10 min at 4° C. (3100 rpm using SORVAL, model RT6000D, using rotor for 50 mL tubes). The pellet is discarded. The supernatant is centrifuged at 100,000×g for 60 min. at 4° C. (Beckman L8-80M ultracentrifuge; spin at 37,500 rpm with rotor type 70 Ti for 50 mL tubes; 38,000 rpm with type 80Ti for 15 mL tubes; or 35,800 rpm with rotor type 45Ti). The supernantant is discarded and the pellet suspended in 3 to 4 mL of Tris buffer (50 mM TRIS-HCl, pH 7.4). The protein content is estimated by the Bradford or Lowry method. The volume of the membrane suspension is adjusted with the membrane buffer (50 mM Tris-HCl containing 0.1% BSA and 0.1 mM PMSF) to give 3.0 mg/mL (or as appropriate) of protein. The membranes are aliquoted and stored at −70° C. C. Radioligand Binding Assay: In wells of a 96-well format microtiter plate, is added 90, 110 or 130 μL (to make up a final volume of 200 μL) of assay buffer containing 50 mM of Tris-HCl (pH 7.4), […], 1 mg % aprotinin, 1 mg % leupeptin, 2 mg % 1,10-phenanthroline, 10 mg % trypsin inhibitor, and 0.1 mM PMSF. The inhibitors are added on the day of the experiment. The components are mixed at room temperature, and then kept in ice bath following adjustment of the pH to 7.4. […] For oxytocin and other peptide ligands, 20 μL of 50% DMSO is added and the assay buffer volume is adjusted accordingly. To each well is added 50 μL of frozen membrane suspension thawed immediately prior to use and diluted in assay buffer to the required concentration (equivalent to 25 to 50 μg of protein/well as needed). 20 μL of 8 nM [^3H]oxytocin in the assay buffer, prepared just before use is added and incubated at room temperature for 60 min. shaking the plate on a mechanical shaker for the first 15 min. The incubation is stopped by rapid filtration of the plate contents followed by washing with ice-cold buffer (50 mM Tris-HCl, pH 7.4) using a cell harvester (Tomtek and Printed filtermat-B filter paper). The filter paper is thoroughly dried (7–12 min. in a microwave oven) and impregnated with MeltiLex B/H melt-on scintillation wax sheets and the radioactivity counted in a betaplate scintillation counter.
Binding data is either reported as percent inhibition at a certain concentration or if an IC50 was calculated, as a nanomolar concentration.

Each structure is given as a SMILES string.

As to `COc1cc(-c2ccccc2C)c(Cl)cc1C(=O)N1Cc2ccc(C(=O)NCCCn3ccnc3)n2Cc2ccccc21` [Example 129, 10-[(6-Chloro-3-methoxy-2′-methyl[1,1′-biphenyl]-4-yl)carbonyl]-N-[3-(1H-imidazol-1-yl)propyl]-10,11-dihydro-5H-pyrrolo[2,1-c][1,4]benzodiazepine-3-carboxamide], the inhibition at 0.1 µM turned out to be 52%.

Consider `COc1cccc(-c2cc(OC)c(C(=O)N3Cc4ccc(C(=O)NCCCn5ccnc5)n4Cc4ccccc43)cc2Cl)c1` [Example 130, 10-[(6-Chloro-3,3′-dimethoxy[1,1′-biphenyl]-4-yl)carbonyl]-N-[3-(1H-imidazol-1-yl)propyl]-10,11-dihydro-5H-pyrrolo[2,1-c][1,4]benzodiazepine-3-carboxamide], for which the inhibition at 0.1 µM is 46%.

As for `COc1cc(C(=O)N2Cc3ccc(C(=O)NCCCn4ccnc4)n3Cc3ccccc32)ccc1-c1cccc2ccccc12` [Example 131, N-[3-(1H-Imidazol-1-yl)propyl]-10-[3-methoxy-4-(1-naphthyl)benzoyl]-10,11-dihydro-5H-pyrrolo[2,1-c][1,4]benzodiazepine-3-carboxamide], the inhibition at 0.1 µM was determined as 26%.

For the compound `COc1ccccc1-c1ccc(C(=O)N2Cc3ccc(C(=O)NCCCn4ccnc4)n3Cc3ccccc32)cc1OC` [Example 132, 10-[(2,2′-Dimethoxy[1,1′-biphenyl]-4-yl)carbonyl]-N-[3-(1H-imidazol-1-yl)propyl]-10,11-dihydro-5H-pyrrolo[2,1-c][1,4]benzodiazepine-3-carboxamide], the inhibition at 0.1 µM was found to be 31%.

Regarding `COc1cccc(-c2ccc(C(=O)N3Cc4ccc(C(=O)NCCCn5ccnc5)n4Cc4ccccc43)cc2OC)c1` [Example 133, 10-[(2,3′-Dimethoxy[1,1′-biphenyl]4-yl)carbonyl]-N-[3-(1H-imidazol-1-yl)propyl]-10,11-dihydro-5H-pyrrolo[2,1-c][1,4]benzodiazepine-3-carboxamide], the inhibition at 0.1 µM worked out at 46%.

On to `O=C(NCCCn1ccnc1)c1ccc2n1Cc1ccccc1N(C(=O)c1ccc(-c3cccc4ccccc34)cc1Cl)C2` [Example 134, 10-[2-Chloro-4-(1-naphthyl)benzoyl]-N-[3-(1H-imidazol-1-yl)propyl]-10,11-dihydro-5H-pyrrolo[2,1-c][1,4]benzodiazepine-3-carboxamide], for which the inhibition at 0.1 µM worked out at 15%.

`Cc1cc(C(=O)N2Cc3ccc(C(=O)NCCCn4ccnc4)n3Cc3ccccc32)ccc1-c1ccccc1C(F)(F)F` [Example 135, N-[3-(1H-Imidazol-1-yl)propyl]-10-{[2-methyl-2′-(trifluoromethyl)[1,1′-biphenyl]-4-yl]carbonyl}-10,11-dihydro-5H-pyrrolo[2,1-c][1,4]benzodiazepine-3-carboxamide]: the inhibition at 0.1 µM worked out at 24%.

Take `COc1ccccc1-c1ccc(C(=O)N2Cc3ccc(C(=O)N4CCC(N5CCCC5)CC4)n3Cc3ccccc32)cc1C` [Example 137, {10-[(2′-Methoxy-2-methyl[1,1′-biphenyl]-4-yl)carbonyl]-10,11-dihydro-5H-pyrrolo[2,1-c][1,4]benzodiazepin-3-yl}[4-(1-pyrrolidinyl)-1-piperidinyl]methanone]: the inhibition at 0.1 µM was found to be 88%.

In the case of `Cc1ccccc1-c1ccc(C(=O)N2Cc3ccc(C(=O)N4CCC(N5CCCC5)CC4)n3Cc3ccccc32)cc1C` [Example 138, {10-[(2,2′-Dimethyl[1,1′-biphenyl]-4-yl)carbonyl]-10,11-dihydro-5H-pyrrolo[2,1-c][1,4]benzodiazepin-3-yl}[4-(1-pyrrolidinyl)-1-piperidinyl]methanone], the inhibition at 0.1 µM was determined as 95%.

On to `COc1cccc(-c2ccc(C(=O)N3Cc4ccc(C(=O)N5CCC(N6CCCC6)CC5)n4Cc4ccccc43)cc2C)c1` [Example 139, {10-[(3′-Methoxy-2-methyl[1,1′-biphenyl]-4-yl)carbonyl]-10,11-dihydro-5H-pyrrolo[2,1-c][1,4]benzodiazepin-3-yl}[4-(1-pyrrolidinyl)-1-piperidinyl]methanone], for which the inhibition at 0.1 µM came to 76%.

Regarding `COc1ccccc1-c1ccc(C(=O)N2Cc3ccc(C(=O)N4CCC(N5CCCC5)CC4)n3Cc3ccccc32)cc1` [Example 140, {10-[(2′-Methoxy[1,1′-biphenyl]-4-yl)carbonyl]-10,11-dihydro-5H-pyrrolo[2,1-c][1,4]benzodiazepin-3-yl}[4-(1-pyrrolidinyl)-1-piperidinyl]methanone], the inhibition at 0.1 µM stood at 87%.

Regarding `Cc1ccccc1-c1ccc(C(=O)N2Cc3ccc(C(=O)N4CCC(N5CCCC5)CC4)n3Cc3ccccc32)cc1` [Example 141, {10-[(2′-Methyl[1,1′-biphenyl]-4-yl)carbonyl]-10,11-dihydro-5H-pyrrolo[2,1-c][1,4]benzodiazepin-3-yl}[4-(1-pyrrolidinyl)-1-piperidinyl]methanone], the inhibition at 0.1 µM was -6%.

Turning to `COc1cc(C(=O)N2Cc3ccc(C(=O)N4CCC(N5CCCC5)CC4)n3Cc3ccccc32)ccc1-c1ccccc1C` [Example 142, {10-[(2-Methoxy-2′-methyl[1,1′-biphenyl]-4-yl)carbonyl]-10,11-dihydro-5H-pyrrolo[2,1-c][1,4]benzodiazepin-3-yl}[4-(1-pyrrolidinyl)-1-piperidinyl]methanone], the inhibition at 0.1 µM worked out at 83%.

Take `COc1cccc(-c2cc(OC)c(C(=O)N3Cc4ccc(C(=O)N5CCC(N6CCCC6)CC5)n4Cc4ccccc43)cc2Cl)c1` [Example 143, {10-[(6-Chloro-3,3′-dimethoxy[1,1′-biphenyl]-4-yl)carbonyl]-10,11-dihydro-5H-pyrrolo[2,1-c][1,4]benzodiazepin-3-yl}[4-(1-pyrrolidinyl)-1-piperidinyl]methanone]: the inhibition at 0.1 µM is 69%.

Consider `COc1cc(C(=O)N2Cc3ccc(C(=O)N4CCC(N5CCCC5)CC4)n3Cc3ccccc32)ccc1-c1cccc2ccccc12` [Example 144, {10-[3-Methoxy-4-(1-naphthyl)benzoyl]-10,11-dihydro-5H-pyrrolo[2,1-c][1,4]benzodiazepin-3-yl}[4-(1-pyrrolidinyl)-1-piperidinyl]methanone], for which the inhibition at 0.1 µM stood at 53%.

`COc1ccccc1-c1ccc(C(=O)N2Cc3ccc(C(=O)N4CCC(N5CCCC5)CC4)n3Cc3ccccc32)cc1OC` [Example 145, {10-[(2,2′-Dimethoxy[1,1′-biphenyl]4-yl)carbonyl]-10,11-dihydro-5H-pyrrolo[2,1-c][1,4]benzodiazepin-3-yl}[4-(1-pyrrolidinyl)-l-piperidinyl]methanone]: the “OT % inhibition @ 100% nM” value turned out to be 53%.

As for `COc1cccc(-c2ccc(C(=O)N3Cc4ccc(C(=O)N5CCC(N6CCCC6)CC5)n4Cc4ccccc43)cc2OC)c1` [Example 146, {10-[(2,3′-Dimethoxy[1,1′-biphenyl]-4-yl)carbonyl]-10,11-dihydro-5H-pyrrolo[2,1-c][1,4]benzodiazepin-3-yl}[4-(1-pyrrolidinyl)-1-piperidinyl]methanone], the inhibition at 0.1 µM worked out at 78%.

Values taken from patent US7109193B2, “Tricyclic diazepines tocolytic oxytocin receptor antagonists” (Wyeth, priority 2001, dated 2006).
